According to patent US20250034151A1, “WEE1 INHIBITOR, PREPARATION THEREFOR, AND USE THEREOF” (JIANGSU TASLY DIYI PHARMACEUTICAL CO., LTD., priority 2022, published 2025):
Like-named read-outs stand apart in the source and are kept apart here.

Experiments:
H1299 cells = assay: Anti-proliferative effect on H1299 cells by Cell Titer-Glo; assay type: cell-based; settings: 3 days
Procedure: (§1) Test Example 2: Evaluation of Cell Proliferation Inhibitory Activity
1. Evaluation of the Anti-Proliferative Effect of Compounds on H1299 Cells by the Cell Titer-Glo Method
(§2) Compound solutions of different concentration gradients were prepared. […] The cell growth group without compound was used as a positive control (maximum signal control) and the medium was used as a negative control (minimum signal control), while ensuring that the final level of DMSO in each reaction well was 0.2%. After removing the medium from the 384-well plate, 25 ul of the configured compound at different concentrations was transferred into the well plate and the compound and cells were incubated in the cell incubator at 37° C. with 5% CO2 for 3 days.
(§3) The 384-well plates were removed from the cell incubator and allowed to equilibrate for 1h to room temperature. 25 ul of Cell Titer-Glo assay was added to each well, lysed on a shaker for 2 min and then read out (Luminescence) using a BMG PHERAStar after 10 min incubation. Calculate the inhibition rate from the luminescence signal: first calculate the average of the positive control (maximum signal control) and the negative control (minimum signal control).
(§4) was used to calculate the rate of inhibition of the cells by different concentrations of the compounds. The IC50 of the compound on cell activity inhibition was calculated by fitting a log(inhibitor) vs. response-Variable slope model to GraphPad Prism 6. The fitted equation was: Y=Bottom+(Top−Bottom)/(1+10^((Log IC50−X)*HillSlope)), where Y represents the rate of inhibition and X represents the concentration of the known compound after Log.
(§5) The results of the in vitro anti-cell proliferation assays of H1299 and MIA Paca-2 for the example compounds according to the method described above are shown in Table 2, wherein the IC50 of each compound was determined and classified according to the description as follows: […]

MIA PaCa2 cells = assay: Anti-proliferative effect on MIA PaCa2 cells by Cell Titer-Glo; assay type: cell-based; settings: Homo sapiens, MIA PaCa-2, 72 h, 3 days, read-out: MIA PaCa 2 (IC50, inhibition of proliferation in vitro)
Procedure: as §1
2. Evaluation of the Anti-Proliferative Effect of Compounds on MIA PaCa2 Cells by the Cell Titer-Glo Method
as §2
as §3, with “1 h” for “1h”
as §4, with “Y=Bottom+(Top-Bottom)/(1+10^((Log” for “Y=Bottom+(Top−Bottom)/(1+10^((Log”, “wherein” for “where”
as §5

Wee1 protein = target: T1, Wee1 protein (Homo sapiens, UniProt P30291); assay: Binding of compound to Wee1 protein and Tracer 178 by TR-FRET (Wee1 kinase inhibitory activity); settings: 15 nM WEE1, 50 nM Tracer 178, read-out: IC50 (inhibitory activity against Wee1 kinase)
T1 construct: purchased Thermo Fisher PR7373A
T1 sequence (P30291 whole entry): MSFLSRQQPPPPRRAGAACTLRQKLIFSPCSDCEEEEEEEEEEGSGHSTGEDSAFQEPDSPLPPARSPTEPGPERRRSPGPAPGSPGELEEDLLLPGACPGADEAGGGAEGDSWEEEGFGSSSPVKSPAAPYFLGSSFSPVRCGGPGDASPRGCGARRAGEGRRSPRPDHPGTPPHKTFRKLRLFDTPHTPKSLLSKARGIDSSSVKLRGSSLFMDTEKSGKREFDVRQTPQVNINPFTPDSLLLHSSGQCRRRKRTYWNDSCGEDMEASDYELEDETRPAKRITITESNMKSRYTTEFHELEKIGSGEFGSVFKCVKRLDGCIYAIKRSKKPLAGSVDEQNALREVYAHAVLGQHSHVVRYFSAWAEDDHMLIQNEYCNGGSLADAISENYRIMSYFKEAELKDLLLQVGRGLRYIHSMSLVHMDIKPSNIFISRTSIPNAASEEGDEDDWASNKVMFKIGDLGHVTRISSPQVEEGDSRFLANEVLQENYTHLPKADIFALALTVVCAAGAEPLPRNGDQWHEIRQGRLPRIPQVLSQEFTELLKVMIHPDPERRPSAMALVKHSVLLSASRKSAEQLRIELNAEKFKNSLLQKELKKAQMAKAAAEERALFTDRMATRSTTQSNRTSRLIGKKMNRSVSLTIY
Procedure: First, solutions of the compounds in different concentration gradients were prepared. The compounds were dissolved in DMSO and the compounds were diluted 4 folds with a total of 10 dose points and 2 parallel replicates for each concentration.
The IC50 for inhibition of enzyme activity by the compounds was then calculated using GraphPad Prism 6 and fitted with a log (inhibitor) vs. response-Variable slope mode. The fitting equation was: Y=Bottom+(Top−Bottom)/(1+10^((Log IC50−X)*HillSlope)), wherein Y represents the percentage of residual enzyme activity known and X represents the known concentration of compound after the logarithm.

[1] = Liver microsomes in vitro stability (mouse); assay type: in vitro ADME; settings: read-out: T1/2/min
Procedure: 1. Preparation of Working Solution:
Microsomes were taken out from the −80° C. refrigerator, rapidly melted in a 37° C. water bath and placed on ice until ready to use. The test article was diluted with DMSO to prepare a 10 mM stock solution, and then diluted with acetonitrile to a 0.5 mM secondary stock solution. […] NADPH was diluted with Buffer C to a working solution of 6 mM for the starter solution. An acetonitrile solution containing an internal standard was prepared as the precipitant, and Verapamil-HCl was chosen as the internal standard at a concentration of 4 ng/ml.
2. Experimental Procedure:
A round-bottom well plate was taken, noted as the reaction plate, and the prepared working solution for each compound was dispensed into the well plate according to the number of replicates and time points (0 h samples were also added to the reaction plate), 30 μL/well; the plate was incubated at 37° C. for 10 min. A separate plate with pointed bottom wells, noted as a precipitation plate, was added with 135 μL precipitant per well; 0 h samples were transferred to the plate after 10 min incubation and 15 μL of starter solution was added; the plate was placed on ice before centrifugation.
The diluted starter solution was added in sufficient quantity to the dispensing plate to facilitate the multichannel pipette aspiration operation.
The reaction was carried out on a warm incubation shaker and 15 μL of starter solution/sample is added to the plate using a multichannel pipette. The reaction was mixed with a slight shake to initiate the reaction, which was accurately timed and recorded using a timer. In general, samples with shorter reaction times are initiated late and vice versa early, allowing sufficient time for multiple plate manipulation to terminate the reaction. For example, as for the four experiments of 5, 15, 30, and 60 min, the 60 min experiment was started first, and the 5 min experiment was started later, so as to leave sufficient time for the 5 min group.
After the reaction time had elapsed, all the solution in the plate was aspirated using the multichannel pipette and added to the precipitation plate to terminate the reaction at that point in time. After all reactions had been terminated, the plates were shaken for ten minutes on a plate shaker at 600 rpm to precipitate the protein. The plate was centrifuged at 4° C. for 15 minutes at maximum rpm. 80 μL of supernatant was taken, 320 μL of pure water was added and mixed for LC-MS analysis.

[2] = Homo sapiens, NCI-H1299, 72 h, read-out: H1299 (IC50, inhibition of proliferation in vitro)

Row | Compound | IC50 (H1299 cells; [2]) [nM] | IC50 (MIA PaCa2 cells) [nM] | IC50 (Wee1 protein) [nM] | half-life at 1 µM [1] [min] | IC50 (H1299 cells; listed as Compound61, read-out: H1299 (IC50, inhibition of proliferation in vitro)) [nM]
1 | C=CCn1c(=O)c2cnc(Nc3ccc(N4C[C@H]5C[C@@H](C4)N5C)cc3)nc2n1-c1cccc(N=S(C)(C)=O)n1 [Compound 39] | 100 to 1000 | ≤ 100 | < 5 | > 120 | 
2 | C=CCn1c(=O)c2cnc(Nc3ccc(N4CC5CC(C4)N5C)cc3)nc2n1-c1ccc2cnn(CC)c2n1 [Compound 61] |  |  | < 5 | > 120 | 2000 to 5000
3 | C=CCn1c(=O)c2cnc(Nc3ccc(N4CC5CCC(C4)N5C)cc3)nc2n1-c1cccc(C(C)(C)O)n1 [Compound 28] | 100 to 1000 | 100 to 1000 | 5 to 10 | 15 | 
4 | C=CCn1c(=O)c2cnc(Nc3ccc(C(=O)N(C)C4CN5CCC4CC5)cc3)nc2n1-c1cccc(C(C)(C)O)n1 (stereo not drawn) [Compound 62] | 1000 to 2000 | 100 to 1000 | 5 to 10 | 25.1 | 
5 | C=CCn1c(=O)c2cnc(Nc3ccc(N4CCC(N5CC6CC5CN6C)CC4)cc3)nc2n1-c1cccc(C(C)(C)O)n1 (stereo not drawn) [Compound 18] | 2000 to 5000 | 100 to 1000 | 5 to 10 | > 120 | 
6 | C=CCn1c(=O)c2cnc(Nc3ccc4c(c3)C(=O)N(C3CCN(C)CC3)C4)nc2n1-c1cccc(N=S(C)(C)=O)n1 [Compound 24] | 5000 to 10000 | 100 to 1000 | 10 to 100 | > 120 | 
7 | C=CCn1c(=O)c2cnc(Nc3ccc(N4CC5CC(CN(CCF)C5)C4)cc3)nc2n1-c1cccc(C(C)(C)O)n1 [Compound 37] | 2000 to 5000 | 100 to 1000 | 10 to 100 | 21.7 | 
8 | C=CCn1c(=O)c2cnc(Nc3ccc(N4CC5CC(CN(C)C5)C4)cc3)nc2n1-c1cccc(C(C)(C)O)n1 [Compound 23] | > 10000 | 2000 to 5000 | 10 to 100 | 38.7 | 
9 | C=CCn1c(=O)c2cnc(Nc3ccc(N4CC5CC(C4)N5CCOC)cc3)nc2n1-c1cccc(C(C)(C)O)n1 [Compound 67] | 100 to 1000 | ≤ 100 | 5 to 10 |  | 
10 | C=CCn1c(=O)c2cnc(Nc3ccc(N4CC5CC(C4)N5C)cc3)nc2n1-c1ccc2oc(=O)n(CC)c2c1 [Compound 54] | 2000 to 5000 | 2000 to 5000 | 5 to 10 | 77 | 
11 | C=CCn1c(=O)c2cnc(Nc3ccc(N(C)[C@@H]4CN5CCC4CC5)cc3)nc2n1-c1cccc(C(C)(C)O)n1 [Compound 19] | > 10000 | > 10000 | < 5 | 48.1 | 
12 | C=CCn1c(=O)c2cnc(Nc3ccc(N4CCC(N(C)C5CN6CCC5CC6)CC4)cc3)nc2n1-c1cccc(N=S(C)(C)=O)n1 (stereo not drawn) [Compound 8] | 5000 to 10000 |  | 5 to 10 | > 120 | 
13 | C=CCn1c(=O)c2cnc(Nc3ccc(N4CC5CC(C4)N5C(C)=O)cc3)nc2n1-c1cccc(C(C)(C)O)n1 [Compound 68] | 1000 to 2000 | 100 to 1000 | 10 to 100 |  | 
14 | C=CCn1c(=O)c2cnc(Nc3ccc(N4CCN(C)c5ccccc54)cc3)nc2n1-c1cccc(C(C)(C)O)n1 [Compound 50] | 5000 to 10000 | > 10000 | 100 to 1000 |  | 
15 | C=CCn1c(=O)c2cnc(Nc3ccc(N4[C@@H]5C[C@H]4CN(C)C5)cc3)nc2n1-c1cccc(C(C)(C)O)n1 [Compound 43] | 2000 to 5000 | 2000 to 5000 | 10 to 100 |  | 
16 | C=CCn1c(=O)c2cnc(Nc3ccc(N4C[C@@H]5C[C@H]4CN5CCF)cc3)nc2n1-c1cccc(C(C)(C)O)n1 [Compound 44] | 100 to 1000 | 100 to 1000 | 5 to 10 |  | 
17 | C=CCn1c(=O)c2cnc(Nc3ccc(N(CC)CC(=O)NC)cc3)nc2n1-c1cccc(C(C)(C)O)n1 [Compound 13] | 5000 to 10000 | 5000 to 10000 | 5 to 10 |  | 
18 | C=CCn1c(=O)c2cnc(Nc3ccc(C4(O)CCN(C)CC4)cc3)nc2n1-c1cccc(C(C)(C)O)n1 [Compound 35] | 2000 to 5000 | 1000 to 2000 | 10 to 100 |  | 
